Values quoted from earlier work as cited in PMC11280411, “Phytochemical Investigation of Carex praecox Schreb. and ACE-Inhibitory Activity of Oligomer Stilbenes of the Plant” (Molecules, 2024).

Tested on: SARS-CoV-2 USA-WA1/2020, B.1.1.7, and B.1.351 variants
Parameters: method as in PMID 34543092
Conditions: cited from earlier work

For `Oc1ccc(C2Oc3cc(O)cc4c3C2c2cc(O)cc(O)c2C(c2ccc(O)cc2)C4C2c3cc(O)cc4c3C(c3cc(O)cc(O)c3C2c2ccc(O)cc2)C(c2ccc(O)cc2)O4)cc1` (single isomer, unassigned; (-)) [Compound 16, (–)-hopeaphenol], the “inhibition of cellular entry of SARS-CoV-2” value is listed as “inhibited cellular entry of SARS-CoV-2 USA-WA1/2020, B.1.1.7, and B.1.351 variants”.
